{
  "source": "patent US9782489B2",
  "about": "“MetAP-2 inhibitor polymersomes for therapeutic administration” (priority 2007, dated 2017)",
  "key": {"[1]": {"settings": "high chemotherapeutic doses; cited from earlier work"}, "[2]": {"assay": "Balance beam motor coordination test (neurotoxicity)", "type": "in vivo", "settings": "30 mg/kg q.o.d. for 14 d; Lodamin oral, free TNP-470 injected subcutaneously; vs water treated mice", "experimental": "A slightly modified balance beam motor coordination test was performed on three groups of mice: Oral Lodamin treated mice (30 mg/kg eq. q.o.d.), free TNP-470 (30 mg/kg) subcutaneously injected mice and water treated mice (administered by gavage). The mice were pretreated for 14 d (n=4-5 per group) and then the mice were allowed to acclimate to the procedure room for 1 h, after which they were trained in 3 trials to cross a wide (20 mm width×1 m length) balance beam. All the mice crossed the wide beam without making foot-slip errors. The mice were then trained on a narrow (4 mm width×1 m length) beam for 3 trials. At the end of the training trials, no freezing behavior was observed, and the mice would start to walk within 4 seconds of being placed on the beam. The mice were then videotaped as they performed in 3 test trials of 3 beam crossings each—a total of 9 crossings per mouse. The 3 trials were separated by at least 1 h to avoid fatigue of the mice. Videotaped crossings were scored for number of foot-slip errors and time to cross. All experiments and scoring of the different groups were performed by an investigator who has been no knowledge regarding the treatment regime of the mice."}, "[3]": {"settings": "in vivo; cited from earlier work"}, "[4]": {"tested_on": "murine, human and metastatic tumors", "settings": "mice; most studies 30 mg/kg subcutaneously every other day; cited from earlier work"}, "[5]": {"tested_on": "LLC tumors", "assay": "Oral Lodamin vs free TNP-470, primary Lewis lung carcinoma tumor experiments", "type": "in vivo, C57Bl/6J mice", "settings": "30 mg/kg q.o.d. oral (TNP-470 equivalent), day 18, FIG. 9A; listed as free TNP-470", "experimental": "For tumor experiments: LLC cells (1×10^6) or B16/F10 melanoma cells (1×10^6) were implanted subcutaneously in 8 week old C57Bl/6J male mice (Jackson Laboratories, Bar Harbor, Me.). Oral availability of free TNP-470 was compared to that of Lodamin. A dose of 30 mg/kg q.o.d. of free TNP-470 and an equivalent dose of Lodamin (Lodamin, 6 mg in 100 μl/d) were administered to LLC tumor bearing mice (˜100 mm^3) and tumor growth was followed for 18 d. Free drug was given as a suspension in double distilled water and freshly prepared before each dose. Additionally, we compared different doses and frequencies of Lodamin treatment: 15 mg/kg q.d., 15 mg/kg q.o.d. and 30 mg/kg q.o.d. To eliminate any possible effect of the vehicle (polymer without drug) one group of mice was given micelles without drug and tumor progression was compared to water treated mice.\nFor the melanoma tumor experiment, a dose of 15 mg/kg q.d. Lodamin was administered to B16/F10 melanoma bearing mice. In all experiments, tumor size and animal weight were monitored every 2 d. Tumor volume was measured with calipers in two diameters as follows: (width)×(length)×0.52. Note that all the above Lodamin doses are presented as TNP-470 equivalent."}, "[6]": {"tested_on": "obesity", "settings": "mice; cited from earlier work"}, "[7]": {"settings": "post-administration; cited from earlier work"}},
  "note": "“Also recorded” adds a separate entry of the source.",
  "data": [
    {"molecule": "COC1C(OC(=O)NC(=O)CCl)CCC2(CO2)C1[C@@]1(C)O[C@@H]1CC=C(C)C", "note": "(stereo partly shown) [TNP-470, 6-O—(N-chloroacetylcarbamoyl) fumagillol]", "values": [
      {"measurement": "adverse effects in patients", "setting": "[1]", "value": "neurotoxicity"},
      {"measurement": "balance beam performance (foot-slip errors)", "setting": "[2]", "value": "over twice as many errors"},
      {"measurement": "plasma half-life of the drug", "setting": "[3]", "value": "a few minutes"},
      {"measurement": "plasma half-life of the metabolites", "setting": "[3]", "value": "less than 2 hr"},
      {"measurement": "inhibition of growth of human tumors", "setting": "[4]", "value": "up to 100%"},
      {"measurement": "inhibition of growth of metastatic tumors", "setting": "[4]", "value": "up to 100%"},
      {"measurement": "inhibition of growth of murine tumors", "setting": "[4]", "value": "up to 91%"},
      {"measurement": "inhibition of LLC tumor growth", "setting": "[5]", "value": "no inhibition; also recorded: no effect"},
      {"measurement": "effect on obesity", "setting": "[6]", "value": "prevent diet-induced and genetic obesity"}
    ]},
    {"molecule": "6-O—(N-chloroacetylcarbamoyl) fumagillol [TNP-470]", "values": [
      {"measurement": "time up to which detected in mice sera", "setting": "[7]", "value": "up to 2 h"}
    ]}
  ]
}
